Results published in patent US10906888B2, “Pyrimidine carboxamides as inhibitors of Vanin-1 enzyme” (Pfizer Inc., priority 2016, dated 2021).

Experiments:
[1] = biological target: human vanin-1 present in human plasma (Homo sapiens (Human), UniProt O95497); assay: Vanin-1 in Human Plasma Assay; format: biochemical; settings: 50% pooled human plasma, 50 uM substrate
Description: Vanin-1 in Human Plasma Assay.
The in vitro assay measures enzymatic cleavage of the fluorescently-labeled vanin substrate, pantetheine 7-amino-4-trifluoromethylcoumarin, by human vanin-1 present in human plasma.
Human plasma was prepared from whole blood drawn from healthy donors, collected in tubes containing sodium heparin. The plasma fractions were separated from the whole blood by centrifugation for 10 minutes at 2000×g and pooled.
The test inhibitors were solubilized in DMSO to a stock concentration of 30 mM. On the day of the assay, dose response plates were prepared by diluting the inhibitors in DMSO to a compound concentration 200-fold the final in-assay concentration. Concentration series were prepared by serially diluting in 100% DMSO in a three-fold series. […] From this intermediate compound plate, 10 μL were transferred to the assay plate and mixed with 20 uL of the pooled human plasma. The inhibitor and enzyme were co-incubated at room temperature for 30 minutes. The enzyme reaction was initiated by the addition of 10 μL of 200 uM pantetheine 7-amino-4-trifluoromethylcoumarin prepared in assay buffer. The final concentrations in the assay were 50% plasma, and 50 uM substrate. The final concentration of DMSO was 0.5%. Datapoints were measured over time using a Tecan Safire 2 platereader at 405 nm excitation wavelength and a 510 nm emission wavelength for detection.

[2] = biological target: human vanin-1 (Homo sapiens (Human), UniProt O95497); assay: Human Vanin-1 Enzyme Assay 1; format: biochemical; settings: 25 pM human vanin-1, 50 uM pantetheine 7-amino-4-trifluoromethylcoumarin substrate
human vanin-1, sequence (O95497 22-491): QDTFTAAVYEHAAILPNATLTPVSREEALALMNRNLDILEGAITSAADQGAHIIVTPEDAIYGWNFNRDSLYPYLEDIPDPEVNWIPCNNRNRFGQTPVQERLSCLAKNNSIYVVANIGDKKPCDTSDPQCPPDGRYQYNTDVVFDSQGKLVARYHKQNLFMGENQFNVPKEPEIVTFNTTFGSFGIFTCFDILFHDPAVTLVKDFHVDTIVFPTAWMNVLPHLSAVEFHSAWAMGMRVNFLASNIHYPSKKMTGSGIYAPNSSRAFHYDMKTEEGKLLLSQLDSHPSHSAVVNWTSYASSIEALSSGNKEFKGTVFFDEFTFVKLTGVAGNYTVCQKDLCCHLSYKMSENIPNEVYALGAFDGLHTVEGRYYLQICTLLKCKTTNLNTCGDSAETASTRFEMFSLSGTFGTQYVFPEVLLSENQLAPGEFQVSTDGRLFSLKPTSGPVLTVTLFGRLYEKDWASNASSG
Description: Human Vanin-1Enzyme Assay 1.
The in vitro assay measures enzymatic cleavage of the fluorescently-labeled vanin substrate, pantetheine 7-amino-4-trifluoromethylcoumarin, by human vanin-1.
The vanin-1 protein was prepared in-house from a construct expressing the extracellular domain of human vanin-1 (GenBank ID NM_004666) preceded N-terminally by the honey bee melittin signal peptide, a GSG linker sequence, a His6× tag and a FLAG tag. The secreted, soluble enzyme was purified from the conditioned medium from a CHO cell line stably expressing the resulting protein. Enzyme purification was performed through sequential Ni NTA and size-exclusion chromatography steps.
Intermediate concentrations were prepared by diluting in DMSO in a four-fold series for a total of 11 data points.
To begin the assay 100 nL was transferred from the compound plate to the assay plate. Next, 15 μL of the vanin-1 working solution were transferred to the assay plate. The inhibitor and enzyme were incubated at room temperature for 30 minutes. The enzyme reaction was then initiated by the addition of 5 μL of 200 μM pantetheine 7-amino-4-trifluoromethylcoumarin prepared in assay buffer. […] The final concentration of DMSO was 0.5%.

human vanin-1 present in human plasma, sequence (O95497 22-491): as above

Row | IC50 [1] [nM] | IC50 [2] [nM] | Compound
1 | 205 | 175 | O=C(c1cnc(NC2(c3cncnc3)CC2)nc1)N1CCCC(F)(F)C1 [Example 70]
2 | > 793 | 1180 | N#CC1CCCN(C(=O)c2cnc(NC3(c4cncnc4)CC3)nc2)C1 (single isomer, unassigned) [Example 196]
3 | 5.39 | 7.12 | O=C(c1cnc(NC2(c3cncnc3)CC2)nc1)N1CCC(C(F)(F)F)C1 (single isomer, unassigned) [Example 193]
4 | 4.63 | 5.48 | O=C(c1cnc(NCc2cncnc2)nc1)N1CC2(CCOCC2)C1 [Example 186]
5 | 32.6 | 10.6 | CS(=O)(=O)C1CCCN(C(=O)c2cnc(NC3(c4cncnc4)CC3)nc2)C1 (single isomer, unassigned) [Example 200]
6 | 0.524 | 0.43 | O=C(c1cnc(NC2(c3cncnc3)COC2)nc1)N1CCC2(CCOCC2)C1 [Example 133]
7 | 12.4 | 12.5 | O=C(c1cnc(NC2(c3cncnc3)CC2)nc1)N1CCCCC1 [Example 190]
8 | 0.905 | 0.293 | O=C(c1cnc(NC2(c3cncnc3)CCC2)nc1)N1CC2(CCOCC2)C1 [Example 174]
9 | 452 | 387 | CC1(CO)CCCN(C(=O)c2cnc(NC3(c4cncnc4)CC3)nc2)C1 (stereo not shown) [Example 108]
10 | 1.61 | 0.116 | O=C(c1cnc(NC2(c3cncnc3)CCC2)nc1)N1CCC2(CCOCC2)C1 [Example 173]
11 | 68 | 79.8 | O=C(c1cnc(NC2(c3cncnc3)CC2)nc1)N1CCCC1 [Example 87]
12 | – | 7.5 | O=C(c1cnc(NC2(c3cncnc3)CC2)nc1)N1CCC2(CCCC2)CC1 [Example 49]
13 | 1.17 | 0.277 | O=C(c1cnc(NC2(c3cncnc3)CC2)nc1)N1CCC2(CCOCC2)C1 [Example 188, 8-oxa-2-azaspiro[4.5]dec-2-yl(2-{[1-(pyrimidin-5-yl)cyclopropyl]amino}pyrimidin-5-yl)methanone]
14 | – | 9.44 | CC1CCCN(C(=O)c2cnc(NC3(c4cncnc4)CC3)nc2)C1 (stereo not shown) [Example 39]
15 | – | 249 | O=C(c1cnc(NC2(c3cncnc3)CC2)nc1)N1CCOCC1 [Example 109]
16 | 9.86 | 10.9 | COC1CCCN(C(=O)c2cnc(NC3(c4cncnc4)CC3)nc2)C1 (stereo not shown) [Example 96]
17 | – | 0.867 | O=C(c1cnc(NC2(c3cncnc3)CC2)nc1)N1CC2(CCOCC2)C1 [Example 189]
18 | 49.2 | 47.4 | O=C(c1cnc(NC2(c3cncnc3)CC2)nc1)N1CCC2(CC1)COC2 [Example 59]
19 | – | 35.1 | O=C(c1cnc(NC2(c3cncnc3)CC2)nc1)N1CCCOCC1 [Example 42]

Further lines, the compound ahead of its results:

Row | Compound | IC50 [1] [nM] | IC50 [2] [nM]
20 | CC(Nc1ncc(C(=O)N2CC3(CCOCC3)C2)cn1)c1cncnc1 (stereo not shown) [Example 184] | 2.21 | 1.45
21 | Cc1ncc(CNc2ncc(C(=O)N3CCC4(CCOCC4)C3)cn2)cn1 [Example 170] | 16.5 | 6.33
22 | O=C(c1cnc(NC2(c3ncccn3)CC2)nc1)N1CC2(CCOCC2)C1 [Example 179] | 14.4 | 7.33
23 | O=C(c1cnc(NC2(c3cnccn3)CC2)nc1)N1CC2(CCOCC2)C1 [Example 158] | 2.03 | 1.11
24 | O=C(c1cnc(NC2(c3cnccn3)CC2)nc1)N1CCC2(CCOCC2)C1 [Example 157] | 12.9 | 0.875
25 | Cc1ccc(CNc2ncc(C(=O)N3CCC4(CCOCC4)C3)cn2)cn1 [Example 137] | 5.02 | 5.24
26 | CC(C)(Nc1ncc(C(=O)N2CC3(CCOCC3)C2)cn1)c1cnccn1 [Example 131, 7-oxa-2-azaspiro[3.5]non-2-yl(2-{[2-(pyrazin-2-yl)propan-2-yl]amino}pyrimidin-5-yl)methanone] | 0.838 | < 0.094
27 | O=C(c1cnc(NCc2cnccn2)nc1)N1CC2(CCOCC2)C1 [Example 135] | 3.7 | 3.38
28 | O=C(c1cnc(NCc2cncnc2C(F)(F)F)nc1)N1CCC2(CCOCC2)C1 [Example 166] | 39.1 | 32.6
29 | O=C(c1cnc(NC2(c3cnccn3)CCC2)nc1)N1CCC2(CCOCC2)C1 [Example 130, 8-oxa-2-azaspiro[4.5]dec-2-yl(2-{[1-(pyrazin-2-yl)cyclobutyl]amino}pyrimidin-5-yl)methanone] | 0.743 | < 0.041
30 | C[C@H](Nc1ncc(C(=O)N2CCC3(CCOCC3)C2)cn1)c1cncnc1 [Example 149] | 1.3 | 0.677
31 | Cc1ccc([C@H](C)Nc2ncc(C(=O)N3CCC4(CCOCC4)C3)cn2)cn1 [Example 140] | 0.95 | 0.283
32 | Cc1ccc(C(C)Nc2ncc(C(=O)N3CCC4(CCOCC4)C3)cn2)cn1 (stereo not shown) [Example 162] | 2.97 | 0.629
33 | C[C@H](Nc1ncc(C(=O)N2CCC3(CCOCC3)C2)cn1)c1ccncn1 [Example 155] | 27.5 | 4.39
34 | C[C@H](Nc1ncc(C(=O)N2CC3(CCOCC3)C2)cn1)c1cnccn1 [Example 147] | 1.89 | 0.65
35 | CC(C)(Nc1ncc(C(=O)N2CCC3(CCOCC3)C2)cn1)c1cncnc1 [Example 143, 8-oxa-2-azaspiro[4.5]dec-2-yl(2-{[2-(pyrimidin-5-yl)propan-2-yl]amino}pyrimidin-5-yl)methanone] | 1.22 | 0.082
36 | C[C@@H](Nc1ncc(C(=O)N2CCC3(CCOCC3)C2)cn1)c1cncnc1 [Example 150] | 35.6 | 27.8
37 | Cc1ccc(CNc2ncc(C(=O)N3CC4(CCOCC4)C3)cn2)cn1 [Example 172] | 17.4 | 4.53
38 | C[C@H](Nc1ncc(C(=O)N2CCN3CC(F)(F)C[C@H]3C2)cn1)c1cnccn1 [Example 118] | – | 4.64
39 | O=C(c1cnc(NCc2cccnc2)nc1)N1CC2(CCOCC2)C1 [Example 2] | – | 1.33
40 | Cc1ccc(C(C)Nc2ncc(C(=O)N3CCC4(CCOCC4)C3)cn2)nc1 (stereo not shown) [Example 161] | – | 8.06
41 | Cc1ncc(C(C)Nc2ncc(C(=O)N3CC4(CCOCC4)C3)cn2)cn1 (stereo not shown) [Example 160] | – | 2.84
42 | O=C(c1cnc(NCc2cccnc2)nc1)N1CCn2ccnc2C1 [Example 8] | – | 37.1
43 | CC(C)(Nc1ncc(C(=O)N2CCC3(CCOCC3)C2)cn1)c1cnccn1 [Example 182, 8-oxa-2-azaspiro[4.5]dec-2-yl(2-{[2-(pyrazin-2-yl)propan-2-yl]amino}pyrimidin-5-yl)methanone] | 1.08 | 0.062
